Assay [1] relates to Culex quinquefasciatus. Nature of the assay: Toxicity against third instar larve of Culex quinquefasciatus after 24 hr. The format is functional.
Assay [2] relates to Culex quinquefasciatus. As to the kind of experiment: Toxicity against third instar larve of Culex quinquefasciatus assessed as mortality at 100 ugcm'-3 after 24 hr. Format: functional.

SMILES strings stand for the structures. Active and inactive are the calls of the source. No cut-off for these calls is given here.

The molecule `COc1cccc(/C=C/C(=O)c2ccccc2)c1-c1ccc(O)cc1` yielded an LC50 in assay [1] of 1474 umol/dm3.
Same read-out and setting: the same measure for `O=C(/C=C/c1ccc([N+](=O)[O-])cc1)c1ccc(O)cc1`: 91 umol/dm3; for `O=C(/C=C/c1ccc2c(c1)OCO2)c1ccccc1O`: 986.1 umol/dm3; for `O=C(/C=C/c1ccccc1)c1ccc(O)cc1` [4'-HYDROXYCHALCONE]: 238 umol/dm3.
The same measure, in the same setting: in the case of `COc1cccc(/C=C/C(=O)c2ccccc2O)c1-c1ccc(O)cc1` it was 684.9 umol/dm3; in that of `CC(/C=C/c1ccccc1)=N\Nc1ccccc1`, 465 umol/dm3.
For orientation: mortality means the percentage killed. `CC(/C=C/c1ccccc1)=N\Nc1ccc([N+](=O)[O-])cc1[N+](=O)[O-]`: the LC50 in assay [1] turned out to be 2344.1 umol/dm3. Moreover, in assay [2], the mortality result is “inactive”.
For `O=C(/C=C/c1cccc([N+](=O)[O-])c1)c1ccccc1`, the LC50 in assay [1] is 994.4 umol/dm3.
With `CC(/C=C/c1ccccc1)=N/O`, in assay [1], the LC50 came to 345 umol/dm3.
In turn, `O=C(/C=C/C=C/c1ccccc1)c1ccccc1O` displayed an LC50 in assay [1] of 1121.1 umol/dm3.
`O=C(/C=C/c1ccccc1)c1ccccc1` [CHALCONE] displayed an LC50 in assay [1] of 90 umol/dm3. The mortality in assay [2] was 100%.
The molecule `O=C(/C=C/c1ccc(Cl)cc1)c1ccccc1O` showed an LC50 in assay [1] of 81 umol/dm3. In addition, the mortality in assay [2] was 100%.
In the same order, the values of `O=C(/C=C/c1ccccc1)c1ccccc1O` [2'-HYDROXYCHALCONE] are 55 umol/dm3 and 100%.
The molecule `O=C(/C=C/c1ccccc1)/C=C/c1ccccc1` registered an LC50 in assay [1] of 2064.4 umol/dm3.
On the same count and under the same terms, in the case of `O=C(/C=C/c1cccc([N+](=O)[O-])c1)c1ccc(O)cc1` it was 89 umol/dm3.
The same measure, in the same setting: the same measure for `C(=C\c1ccccc1)/C(=N/Nc1ccccc1)c1ccccc1`: 2134.5 umol/dm3; for `O=C(/C=C/c1ccc(Cl)cc1)c1ccccc1` [4-CHLORO CHALCONE]: 5 umol/dm3.
Turning to `O=C(/C=C/c1ccco1)c1ccccc1O`, in assay [1], the LC50 was 19 umol/dm3. In addition, the mortality in assay [2] was found to be 100%.
`O=[N+]([O-])c1ccc(NN=C(/C=C/c2ccccc2)/C=C/c2ccccc2)c([N+](=O)[O-])c1`: the LC50 in assay [1] is 2638.2 umol/dm3. In addition, the mortality entry in assay [2] is “inactive”.
In assay [1], `O=[N+]([O-])c1ccc(N/N=C(/C=C/c2ccccc2)c2ccccc2)c([N+](=O)[O-])c1` registered an LC50 of 2531.3 umol/dm3. In addition, the mortality result in assay [2] was “inactive”.
In the same order, the values of `O=C(/C=C/c1ccccc1O)c1ccccc1` are 104 umol/dm3 and 100%.
In assay [1], `O=C(/C=C/c1cccc([N+](=O)[O-])c1)c1ccccc1O` had an LC50 of 526.6 umol/dm3.
On the same count and under the same terms, the same measure for `O=C(/C=C/C=C/c1ccccc1)c1ccccc1`: 437 umol/dm3; for `O=C(/C=C/c1ccc2c(c1)OCO2)c1ccccc1`: 5 umol/dm3; for `O=C(/C=C/c1ccc([N+](=O)[O-])cc1)c1ccccc1O`: 881.6 umol/dm3.
For the molecule `O=C(/C=C/c1ccc([N+](=O)[O-])cc1)c1ccccc1`, the LC50 in assay [1] is recorded as 959.5 umol/dm3.
On the same count and under the same terms, the same measure for `CC(/C=C/c1ccccc1)=N\NC(N)=O`: 2087.9 umol/dm3.
